Patent US7312306B2, “Substituted heterocyclic acyl-tripeptides useful as thrombin receptor modulators” (Ortho-McNeil Pharmaceutical, Inc., priority 1998, dated 2007)
Read-outs that look alike come from different tables or passages of the source. Starred links: 1 amine or outer side, 2 acyl side, 3 side chain; linkers in the order of their positions; H or OH if unused. Non-standard residues stand in square brackets, D forms with d. Residues, ends and D or L forms follow the SMILES beside them. ξ: configuration not given here. Triazole(1,2,4-3-CO,5-NH) = O=C(c1n[nH]c(N[*:1])n1)[*:2]; Phe(4-F) = N[CH](Cc1ccc(F)cc1)C(=O)O; ξNip = O=C(C1CCCN([*:1])C1)[*:2]; Cha = N[CH](CC1CCCCC1)C(=O)O

Assays:
[1] = tested on: platelet aggregation; experiment: In vitro agonist platelet aggregation assay (gel-filtered platelets); assay type: cell-based, Human
Experimental: (§1) In Vitro Agonist Platelet Aggregation Assay/Inhibition of Thrombin-induced Gel-filtered Platelet Aggregation Assay
(§2) The percentage of platelet aggregation is calculated as an increase in light transmission of compound-treated platelet concentrate vs. control-treated platelet concentrate. Human blood is obtained from drug free, normal donors into tubes containing 0.13 M sodium citrate. Platelet rich plasma (PRP) is collected by centrifugation of whole blood at 200×g for 10 min at 25° C. The PRP (5 mL) is gel filtered through Sepharose 2B (bed volume 50 mL), and the platelet count is adjusted to 2×10^7 platelets per sample. The following constituents are added to a siliconized cuvette: concentrated platelet filtrate and Tyrode's buffer (0.14 M NaCl, 0.0027 M KCl, 0.012 M NaHCO3, 0.76 mM Na2HPO4, 0.0055 M glucose, 2 mg/mL BSA and 5.0 mM HEPES @ pH 7.4) in an amount equal to 350 l, 50 l of 20 mM calcium and 50 l of the test compound. Aggregation is monitored in a BIODATA aggregometer for the 3 min following the addition of agonist (thrombin 50 l of 1 unit/mL).

[2] = tested on: gel-filtered platelets aggregation induced by thrombin; experiment: Inhibition of thrombin-induced gel-filtered platelet aggregation assay; assay type: cell-based; conditions: Homo sapiens
Experimental: as §1, §2

[3] = agonist activity, human gel-filtered platelets, Table 1, read-out: EC50 (M), EC50 values for platelet aggregation
[4] = Homo sapiens, read-out: EC50 (M), EC50 values for platelet aggregation
[5] = gel-filtered platelets aggregation induced by thrombin, Table 2, read-out: IC50 (M), inhibition of platelet aggregation

Row | EC50 [1, 3] | IC50 [2, 5] | SMILES | also measured
1 |  | 8.4e-06 M | Cc1c(S(=O)(=O)N[C@@H](CC2CCCCC2)C(=O)N[C@@H](CCCNC(=N)N)C(=O)N[C@@H](Cc2ccccc2)C(N)=O)sc2ccc(Cl)cc12 [Compound 36] | 
2 |  | 2.1e-05 M | N=C(N)NCCC[C@H](NC(=O)[C@H](CC1CCCCC1)NC(=O)c1cc2ccccc2s1)C(=O)N[C@@H](Cc1ccccc1)C(N)=O [Compound 37] | 
3 | 4e-06 M |  | N=C(N)NCCC[C@H](NC(=O)[C@H](CC1CCCCC1)NC(=O)c1ccc2[nH]cnc2c1)C(=O)N[C@@H](Cc1ccccc1)C(N)=O [Compound 41] | 
4 |  | 1.25e-05 M | N=C(N)NCCC[C@H](NC(=O)[C@H](CC1CCCCC1)NS(=O)(=O)c1ccc2ccccc2c1)C(=O)N[C@@H](Cc1ccccc1)C(N)=O [Compound 43] | 

Second part, the compound before the results:

Row | SMILES | EC50 [1, 3] | IC50 [2, 5] | also measured
5 | N=C(N)NCCC[C@H](NC(=O)[C@H](CC1CCCCC1)NC(=O)c1n[nH]c(N)n1)C(=O)N[C@@H](Cc1ccccc1)C(N)=O [Compound 1] | 7.5e-07 M |  | 
6 | N=C(N)NCCCC(NC(=O)C(Cc1ccccc1)NC(=O)C(CCCNC(=N)N)NC(=O)C(CC1CCCCC1)NC(=O)c1n[nH]c(N)n1)C(N)=O (centres unmarked) [Compound 9] ({Triazole(1,2,4-3-CO,5-NH)}-[Cha]RFR-NH2; configuration not given here) |  |  | EC50 [1, 4]: 1.21e-06 M
7 | N=C(N)NCCCC(NC(=O)C(CC1CCCCC1)NC(=O)c1n[nH]c(NC(=O)C(F)=Cc2ccccc2)n1)C(=O)NC(Cc1ccccc1)C(N)=O (centres unmarked) [Compound 12] | 1.72e-06 M |  | 
8 | N=C(N)NCCCC(NC(=O)C(CC1CCCCC1)NC(=O)c1n[nH]c(NC(=O)C=Cc2ccc(F)cc2)n1)C(=O)NC(Cc1ccccc1)C(N)=O (centres unmarked) [Compound 26] |  |  | EC50 [1, 4]: 7.9e-06 M; IC50 ([2]; read-out: IC50 (M), inhibition of platelet aggregation): 1.3e-05 M
9 | N=C(N)NCCCC(NC(=O)C(CC1CCCCC1)NC(=O)C1CCCN(C(=O)C(N)Cc2ccc(F)cc2)C1)C(=O)NC(Cc1ccccc1)C(N)=O (centres unmarked) [Compound 32] (H-[Phe(4-F)][ξNip][Cha]RF-NH2; configuration not given here) | 2.6e-05 M |  | 
10 | N=C(N)NCCCC(NC(=O)C(CC1CCCCC1)NC(=O)c1n[nH]c(NC(=O)C(=Cc2ccccc2)c2ccccc2)n1)C(=O)NC(Cc1ccccc1)C(N)=O (centres unmarked) [Compound 34] |  | 1.9e-05 M | 
